Reference: PMC8418346, “Aromatic L-amino acid decarboxylase deficiency: a patient-derived neuronal model for precision therapies” (Brain, 2021)
Numbering of substitutions follows the chain as printed. Names and notes keep the numbering of the source.

Experiments:
[1] = target: T1, AADC (aromatic L-amino acid decarboxylase), recombinant (Homo sapiens, UniProt P20711); assay: kinetic parameters of recombinant AADC (method in supplement); assay type: biochemical; conditions: wild-type reference of the C100S comparison; main text does not state whether measured here or taken from earlier work
T1 construct: gene DDC; recombinant AADC produced in vitro; native homodimer
T1 sequence (P20711 1-480): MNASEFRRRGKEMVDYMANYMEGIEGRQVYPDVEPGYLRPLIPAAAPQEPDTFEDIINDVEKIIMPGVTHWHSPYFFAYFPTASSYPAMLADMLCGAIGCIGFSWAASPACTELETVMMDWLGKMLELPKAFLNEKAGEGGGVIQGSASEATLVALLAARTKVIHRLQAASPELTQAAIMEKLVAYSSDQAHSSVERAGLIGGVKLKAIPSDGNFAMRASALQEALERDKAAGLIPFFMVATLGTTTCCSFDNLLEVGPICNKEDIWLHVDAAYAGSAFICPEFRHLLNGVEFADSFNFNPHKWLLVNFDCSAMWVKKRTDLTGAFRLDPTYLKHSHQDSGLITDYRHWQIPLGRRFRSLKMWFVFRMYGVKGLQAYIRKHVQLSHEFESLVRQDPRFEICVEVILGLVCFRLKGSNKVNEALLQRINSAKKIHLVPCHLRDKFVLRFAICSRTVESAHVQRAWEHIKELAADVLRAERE

[2] = target: T2, AADC (aromatic L-amino acid decarboxylase), recombinant (Homo sapiens, UniProt P20711, C100S); assay: PLP binding affinity of recombinant AADC (method in supplement)
T2 construct: gene DDC; recombinant AADC produced in vitro; native homodimer
T2 sequence (P20711 1-480 C100S): T1 sequence (P20711 1-480) with C100S
Excerpt: PLP binding affinity of recombinant AADC (method in supplement) on AADC (aromatic L-amino acid decarboxylase), recombinant | with a KD(PLP) consistently lower than previously reported values for AADC variants

[3] = substrate: N[C@@H](Cc1ccc(O)c(O)c1)C(=O)O; assay: kinetic parameters of recombinant AADC (method in supplement); assay type: biochemical, Homo sapiens
Excerpt: kinetic parameters of recombinant AADC (method in supplement) on AADC (aromatic L-amino acid decarboxylase), recombinant | attributed to a slight decrease in L-DOPA affinity (KM)

N[C@@H](Cc1ccc(O)c(O)c1)C(=O)O [L-DOPA]
KM [1]: catalytic activity (kcat) of AADCC100S was indeed similar to that observed for wild-type

Cc1ncc(COP(=O)(O)O)c(C=O)c1O [PLP]
Kd [2]: 0.112 ± 0.014 µM

B1: AADC (aromatic L-amino acid decarboxylase), recombinant (Homo sapiens; C100S) (protein)
chain: T1 sequence (P20711 1-480) with C100S
notes: recombinant AADC produced in vitro; native homodimer
Km [3]: 420 ± 100 µM
kcat [3]: 6.9 ± 0.6 s⁻¹
